# Experimental data taken from patent US20250340569A1, “INHIBITORS OF KIF18A AND USES THEREOF” (Insilico Medicine IP Limited, priority 2023, published 2025).
# Legend:
# Kif18A = molecular target: T1, Kif18A (Homo sapiens, UniProt Q8NI77); test: KIF18A assay (ADP Glo); conditions: biochemical assay, ADP Glo luminescence
# T1 sequence (Q8NI77 1-898): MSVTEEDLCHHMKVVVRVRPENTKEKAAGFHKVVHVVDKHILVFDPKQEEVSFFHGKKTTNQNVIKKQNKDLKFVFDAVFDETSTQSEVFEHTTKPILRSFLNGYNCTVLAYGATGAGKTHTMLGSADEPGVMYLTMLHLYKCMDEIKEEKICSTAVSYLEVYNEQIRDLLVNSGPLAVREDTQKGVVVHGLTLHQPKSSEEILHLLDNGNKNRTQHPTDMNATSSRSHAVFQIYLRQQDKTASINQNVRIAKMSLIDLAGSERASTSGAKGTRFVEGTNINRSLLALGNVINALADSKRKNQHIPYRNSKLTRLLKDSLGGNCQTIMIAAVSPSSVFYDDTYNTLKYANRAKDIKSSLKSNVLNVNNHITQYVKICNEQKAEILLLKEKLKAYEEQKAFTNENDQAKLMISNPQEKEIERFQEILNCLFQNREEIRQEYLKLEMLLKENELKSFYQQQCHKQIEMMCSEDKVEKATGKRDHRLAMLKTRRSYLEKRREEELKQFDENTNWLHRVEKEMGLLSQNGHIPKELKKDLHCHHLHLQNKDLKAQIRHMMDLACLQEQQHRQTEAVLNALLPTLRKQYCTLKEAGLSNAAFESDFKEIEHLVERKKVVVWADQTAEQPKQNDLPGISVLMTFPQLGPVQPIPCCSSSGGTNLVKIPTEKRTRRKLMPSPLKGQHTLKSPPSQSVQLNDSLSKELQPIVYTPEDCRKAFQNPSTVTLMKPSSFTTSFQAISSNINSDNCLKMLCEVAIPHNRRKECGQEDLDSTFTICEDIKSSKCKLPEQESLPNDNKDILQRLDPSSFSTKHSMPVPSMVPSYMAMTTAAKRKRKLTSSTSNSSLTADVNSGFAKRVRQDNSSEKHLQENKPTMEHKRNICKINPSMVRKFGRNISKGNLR
# Description: The KIF18A assay was performed as follows:
# 1.1. Prepared 1× Kinase Buffer
# • a) Added 40 μL test compound to 384-well dilution plate • b) Diluted compound 1:3 in succession in DMSO for each column for 10 pts • c) Transferred 0.1 μL diluted compound solution to 384 assay plate using Echo, each column containing 2 replicates • d) Added 5 μL enzyme working solution to 384-well assay plate, centrifuge 1000 RPM for 1 min e) Incubated at 25° C. for 15 min • f) Added 5 μL ATP working solution to initiate reaction • g) Incubated at 25° C. for 60 min • h) Added 10 μL ADP Glo reagent, centrifuge 1000 RPM for 1 min • i) Incubated at 25° C. for 60 min • j) Added 20 μL kinase detection reagent, centrifuge 1000 RPM for 1 min • k) Incubated at 25° C. for 60 min • l) Read Luminescence Signal on Envision 2104 plate reader.
# 1.3. Data Analysis—Calculated IC50 and Plot Dose-Response Curve of Compounds:
# Calculated IC50 by fitting % Inhibition values and log of compound concentrations to nonlinear regression (dose response−variable slope) with GraphPad 6.0.
# [formula] • X: log of inhibitor concentration; Y: % Inhibition
# OVCAR-3 = test: OVCAR3 CTG assay; format: cell-based; conditions: Homo sapiens, OVCAR-3, 144 h; CellTiter-Glo, 6 days incubation
# Summary of the method: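 OVCAR-3 cells plated overnight, then exposed to test compounds for 6 days at 37 °C, 5% CO2; 2 mM DMSO working stock diluted 200-fold overall, staurosporine as control. Viability read by CellTiter-Glo luminescence after 10 min lysis and 10 min room-temperature stabilisation.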
SMILES,IC50 (Kif18A) [nM],IC50 (OVCAR-3) [nM]
Cc1cc2nc(n1)N1CCO[C@H](COCC3(C(F)F)CCN(CC3)c3cc(NS(=O)(=O)CCO)ccc3C(=O)N2)C1 [EX113-A],10 to 100,< 10
Cc1cc2nc(n1)N1CCC(F)(F)[C@@H](CCCC3(C)CCN(CC3)c3cc(NS(=O)(=O)CCO)ccc3C(=O)N2)C1 [EX115-B],10 to 100,10 to 100
"CC1CCCC2(C(F)(F)F)CCN(CC2)c2cc(NS(=O)(=O)CCO)ncc2C(=O)Nc2cccc(n2)NC1 (single isomer, unassigned) [EX100-B]",< 10,< 10

# Next, values leading:
IC50 (Kif18A) [nM],IC50 (OVCAR-3) [nM],SMILES
< 10,10 to 100,Cc1cc2nc(n1)OCCCOCC1(C)CCN(CC1)c1cc(NS(=O)(=O)CCO)ccc1C(=O)N2 [EX05]
< 10,10 to 100,CC12CCN(CC1)c1cc(NS(=O)(=O)CCO)ccc1C(=O)Nc1cccc(n1)OCCCOC2 [EX02]
100 to 1000,1000 to 10000,Cc1cc2nc(n1)NCCOC[C@@H]1CCC[C@H](COc3cc(NS(=O)(=O)CCO)ccc3C(=O)N2)C1 (relative stereo) [EX106]
10 to 100,100 to 1000,Cc1cc2nc(n1)N(C)CCCOCC1(C(F)(F)F)CCN(CC1)c1cc(NS(=O)(=O)CCO)ccc1C(=O)N2 [EX27]
10 to 100,10 to 100,Cc1cc2nc(n1)NCC(C)COCC1(C(F)(F)F)CCN(CC1)c1nc(NC(C)(C)CO)ccc1C(=O)N2 (centres unmarked) [EX55]
< 10,10 to 100,Cc1cc2nc(n1)NCC(F)COCC1(C)CCN(CC1)c1cc(NS(=O)(=O)CCO)ccc1C(=O)N2 (centres unmarked) [EX24]
10 to 100,10 to 100,Cc1cc2nc(n1)NCCOCCC1(C)CCN(CC1)c1cc(NS(=O)(=O)CCO)ccc1C(=O)N2 [EX23]
